From patent publication US20100087649A1, “QUINOLINONE DERIVATIVES” (priority 2006, published 2010)

How the values were obtained:
MT4 CMV-EGFP cells = assay: Cytotoxicity in mock-infected MT4 CMV-EGFP cells; assay type: cell-based, human; details: fluorescence reduced by 50%
From the text: Analogously, MT4 cells are engineered with GFP and the constitutional cytomegalovirus (CMV) promotor. This cell line is designated MT4 CMV-EGFP, and can be used for the in vitro evaluation of cytotoxicity of investigational compounds. In this cell line, GFP levels are comparably to those of infected MT4 LTR-EGFP cells. Cytotoxic investigational compounds reduce GFP levels of mock-infected MT4 CMV-EGFP cells.
(§1) Effective concentration values such as 50% effective concentration (EC50) can be determined and are usually expressed in μM. An EC50 value is defined as the concentration of test compound that reduces the fluorescence of HIV-infected cells by 50%. The 50% cytotoxic concentration (CC50 in μM) is defined as the concentration of test compound that reduces fluorescence of the mock-infected cells by 50%. The ratio of CC50 to EC50 is defined as the selectivity index (SI) and is an indication of the selectivity of the anti-HIV activity of the inhibitor. The ultimate monitoring of HIV-1 infection and cytotoxicity is done using a scanning microscope. Image analysis allows very sensitive detection of viral infection. Measurements are done before cell necrosis, which usually takes place about five days after infection, in particular measurements are performed three days after infection.

[1] = test system: wild-type HIV-IIIB strain; assay: Antiviral analysis EGFP: anti-HIV activity in MT4 LTR-EGFP cells; assay type: cell-based, HIV-1; details: fluorescence of HIV-infected cells reduced by 50%, three days after infection
Procedure: The compounds of the present invention were tested for anti-viral activity in a cellular assay, which was performed according to the following procedure.
The human T-cell line MT4 is engineered with Green Fluorescent Protein (GFP) and an HIV-specific promoter, HIV-1 long terminal repeat (LTR). This cell line is designated MT4 LTR-EGFP, and can be used for the in vitro evaluation of anti-HIV activity of investigational compounds. In HIV-1 infected cells, the Tat protein is produced which upregulates the LTR promotor and finally leads to stimulation of the GFP reporter production, allowing measuring ongoing HIV-infection fluorometrically.
as §1
The following Table 5 lists EC50 values, expressed in micromole/liter, against wild-type HIV-IIIB strain, for a selected number of compounds of the invention.

Structure (SMILES) | CC50 (MT4 CMV-EGFP cells) [µM] | EC50 [1] [µM]
N#Cc1ccc(-n2c(=O)c(C#N)cc3ccccc32)cc1 [compound 2] | > 32 | > 32
N#Cc1cc2ccccc2n(-c2ccc([N+](=O)[O-])cn2)c1=O [compound 3] | > 32 | 4.8
N#Cc1cc2ccccc2n(-c2ccc(Cl)nc2)c1=O [compound 4] | > 32 | > 32
Cc1ccc(-n2c(=O)c(C#N)cc3ccccc32)cn1 [compound 5] | > 32 | > 32
N#Cc1cc2cc3c(cc2n(-c2ccc([N+](=O)[O-])cc2)c1=O)OCO3 [compound 6] | > 100 | 1.12
N#Cc1cc2ccc(NCCN3CCCC3)cc2n(-c2ccc([N+](=O)[O-])cc2)c1=O [compound 12] | > 100 | 1.22
N#Cc1cc2ccc(NCCN3CCOCC3)cc2n(-c2ccc([N+](=O)[O-])cc2)c1=O [compound 14] | > 32 | 4.08
CNCCNc1ccc2cc(C#N)c(=O)n(-c3ccc([N+](=O)[O-])cc3)c2c1 [compound 15] | > 32 | 1.37
N#Cc1cc2ccc(NCCN)cc2n(-c2ccc([N+](=O)[O-])cc2)c1=O [compound 16] | > 32 | 1.55
COCCNc1ccc2cc(C#N)c(=O)n(-c3ccc([N+](=O)[O-])cc3)c2c1 [compound 17] | > 32 | > 32
N#Cc1cc2ccc(NCC3CCNC3)cc2n(-c2ccc([N+](=O)[O-])cc2)c1=O (stereo not shown) [compound 18] | > 32 | 4.43
N#Cc1cc2ccc(NCCCN)cc2n(-c2ccc([N+](=O)[O-])cc2)c1=O [compound 19] | 30.6 | 0.91
CN(C)CCCNc1ccc2cc(C#N)c(=O)n(-c3ccc([N+](=O)[O-])cc3)c2c1 [compound 20] | 49 | 0.3
N#Cc1cc2ccc(NCCCN3CCCC3)cc2n(-c2ccc([N+](=O)[O-])cc2)c1=O [compound 21] | 69.5 | 0.21
CNCCCNc1ccc2cc(C#N)c(=O)n(-c3ccc([N+](=O)[O-])cc3)c2c1 [compound 22] | 88.7 | 0.36
N#Cc1cc2ccc(NCc3cccnc3)cc2n(-c2ccc([N+](=O)[O-])cc2)c1=O [compound 23] | > 32 | > 32
N#Cc1cc2ccc(-c3ccncc3)cc2n(-c2ccc([N+](=O)[O-])cc2)c1=O [compound 29] | > 32 | 0.92
N#Cc1cc2ccc(-c3cccc(CN)c3)cc2n(-c2ccc([N+](=O)[O-])cc2)c1=O [compound 30] | 24.7 | 0.63
N#Cc1cc2ccc(-c3cncnc3)cc2n(-c2ccc([N+](=O)[O-])cc2)c1=O [compound 31] | > 100 | 7.9
N#Cc1cc2ccc(-c3cccc(O)c3)cc2n(-c2ccc([N+](=O)[O-])cc2)c1=O [compound 32] | > 100 | 0.65
N#Cc1cc2ccc(-c3cccnc3)cc2n(-c2ccc([N+](=O)[O-])cc2)c1=O [compound 33] | > 100 | 0.83
N#Cc1cc2ccc(-c3ccc[nH]3)cc2n(-c2ccc([N+](=O)[O-])cc2)c1=O [compound 34] | 32.3 | 0.25
N#Cc1cc2ccc(-c3ccc(C(N)=O)cc3)cc2n(-c2ccc([N+](=O)[O-])cc2)c1=O [compound 35] | 22.6 | 1.71
N#Cc1cc2ccc(-c3cccs3)cc2n(-c2ccc([N+](=O)[O-])cc2)c1=O [compound 36] | > 100 | 0.76

Structure (SMILES) | CC50 (MT4 CMV-EGFP cells) [µM] | EC50 [1] [µM]
N#Cc1cc2ccc(-c3cccc(N)c3)cc2n(-c2ccc([N+](=O)[O-])cc2)c1=O [compound 37] | > 100 | 0.42
N#Cc1cc2ccc(-c3cccc(CO)c3)cc2n(-c2ccc([N+](=O)[O-])cc2)c1=O [compound 38] | 18.6 | 0.61
CC(=O)Nc1cccc(-c2ccc3cc(C#N)c(=O)n(-c4ccc([N+](=O)[O-])cc4)c3c2)c1 [compound 39] | > 100 | 51.3
CN(C)C(=O)c1ccc(-c2ccc3cc(C#N)c(=O)n(-c4ccc([N+](=O)[O-])cc4)c3c2)cc1 [compound 40] | > 100 | 0.95
N#Cc1cc2ccc(-c3ccoc3)cc2n(-c2ccc([N+](=O)[O-])cc2)c1=O [compound 41] | 38.1 | 0.28
N#Cc1cc2ccc(-c3cccc(C(N)=O)c3)cc2n(-c2ccc([N+](=O)[O-])cc2)c1=O [compound 42] | > 100 | 2.85
CC(=O)NCc1cccc(-c2ccc3cc(C#N)c(=O)n(-c4ccc([N+](=O)[O-])cc4)c3c2)c1 [compound 43] | > 100 | 0.93
N#Cc1cc2ccc(-c3cc[nH]c3)cc2n(-c2ccc([N+](=O)[O-])cc2)c1=O [compound 44] | > 100 | 0.19
CN(C)Cc1cccc(-c2ccc3cc(C#N)c(=O)n(-c4ccc([N+](=O)[O-])cc4)c3c2)c1 [compound 45] | 17.1 | 0.14
N#Cc1cc2ccc(-c3cc[nH]n3)cc2n(-c2ccc([N+](=O)[O-])cc2)c1=O [compound 46] | > 100 | 0.16
N#Cc1cc2ccc(-c3ccc(C(=O)O)s3)cc2n(-c2ccc([N+](=O)[O-])cc2)c1=O [compound 47] | > 100 | > 100
N#Cc1cc2ccc(-c3cn[nH]c3)cc2n(-c2ccc([N+](=O)[O-])cc2)c1=O [compound 48] | > 100 | 0.71
N#Cc1cc2ccc(-c3ccc(C(=O)O)cc3)cc2n(-c2ccc([N+](=O)[O-])cc2)c1=O [compound 49] | > 100 | > 100
CS(=O)(=O)NCc1cccc(-c2ccc3cc(C#N)c(=O)n(-c4ccc([N+](=O)[O-])cc4)c3c2)c1 [compound 50] | 11.8 | 3
N#Cc1cc2ccc(OCCN3CCCC3)cc2n(-c2ccc([N+](=O)[O-])cc2)c1=O [compound 52] | > 32 | 2.45
N#Cc1cc2ccc(OCCN)cc2n(-c2ccc([N+](=O)[O-])cc2)c1=O [compound 53] | > 100 | 1.14
N#Cc1cc2ccc(OCCN3CCOCC3)cc2n(-c2ccc([N+](=O)[O-])cc2)c1=O [compound 55] | > 32 | 13.5
N#Cc1cc2ccc(OCCCN3CCOCC3)cc2n(-c2ccc([N+](=O)[O-])cc2)c1=O [compound 56] | > 32 | 1.4
N#Cc1cc2ccc(OCCCN)cc2n(-c2ccc([N+](=O)[O-])cc2)c1=O [compound 57] | 49.6 | 1.06
CCN(CC)CCOc1ccc2cc(C#N)c(=O)n(-c3ccc([N+](=O)[O-])cc3)c2c1 [compound 59] | > 32 | 12.9
N#Cc1cc2ccc(OCCCCN)cc2n(-c2ccc([N+](=O)[O-])cc2)c1=O [compound 60] | > 32 | 3.76
N#Cc1cc2ccc(OCCN3CCNCC3)cc2n(-c2ccc([N+](=O)[O-])cc2)c1=O [compound 61] | > 32 | 3.65
N#Cc1cc2ccc(-c3ncco3)cc2n(-c2ccc([N+](=O)[O-])cc2)c1=O [compound 79] |  | 0.12
Cc1ccc(-n2c(=O)c(C#N)cc3ccc(-c4cscn4)cc32)cc1C#N [compound 160] |  | 0.33
